Consider four compounds from patent EP1383793B1 (priority 2000, dated 2001).

In assay [1] the target is T1, IGF-1R (Homo sapiens, UniProt P08069).
T1 construct: Soluble IGF-1R was obtained from R&D Systems; purchased R&D Systems 391-GR/CF
Put plainly: Phage ELISA, binding of phage-displayed peptides to IGF-1R. As to conditions: 405 nm. The protocol:
Figures 1A-10G. Amino acid sequences comprising the motif of Formulas 1 through 10. […] One hundred microliters of this solution was added to an appropriate number of wells in a 96-well microtiter plate (MaxiSorp plates, Nunc) and incubated overnight at 4°C. […] Subsequent steps are the same for pooled and clonal phage. […] Phage resuspended in MPBS were added to duplicate wells (100 µl/well) and incubated at RT for 1 h. […] Incubation was for 1 h at RT, followed by PBS washes as described. […] Phage ELISA. […] The wells were blocked with 200 µl of MPBS for 1.5 h at RT. Phage were added at 100 µl per well. Peptides were added as noted below and allowed to incubate at RT for 3 h. The plates were washed 3 times with PBST. A solution of 1:3000 diluted HRP:Anti-M13 conjugate at 100 µl per well of was added for 1 h. Following a repeat of the washing, 100 µl of ABTS was added for 15-30 min. […] Phage ELISA. […] Phage were added at 100 µl per well. Peptides were added as noted below and allowed to incubate at RT for 3 h. The plates were washed 3X with PBST. A solution of 1:3000 diluted HRP:Anti-M13 Conjugate at 100 µl per well of was added for 1 h. Following a repeat of the washing, 100 µl of ABTS was added for 15-30 min. The OD405 was measured using a SpectraMax 340 Microplate Spectrophotometer.

Assay [2] addresses T2, Insulin receptor (Homo sapiens, UniProt P06213).
T2 construct: composed of the extracellular domains of both the α and β chains of the natural receptor; made in house; background b13 names human embryonic kidney 293 cells for the Bass et al. construct
Put plainly: BIAcore competition: IR pre-incubated with test substance, injected over immobilised insulin. It counts as binding. The following applies: peptide about 40 µM, IR 450 nM; IR alone 128 RU. The protocol: Flowcell-1 was used for background binding to correct for any non-specific binding. […] The surface was regenerated with 25 mM NaOH. […] Thus, the system was validated for competition studies. […] The amino acid sequences referred to in the tables are identified in Figures 47 and 48, except the 447 and 2A9 sequences, which are shown below. TABLE 9: BIAcore Results-Fusion Proteins Compete for Binding to IR
A general note: In SPR one partner is held on a chip, and binding of the other changes the refractive index at the surface.

Assay [3] deals with T3, purified insulin receptor (Homo sapiens, UniProt P06213).
T3 construct: host or cells: 'Wheat Germ Agglutinin Expression System' (so in the source)
T3 sequence (P06213 28-758 limits assumed): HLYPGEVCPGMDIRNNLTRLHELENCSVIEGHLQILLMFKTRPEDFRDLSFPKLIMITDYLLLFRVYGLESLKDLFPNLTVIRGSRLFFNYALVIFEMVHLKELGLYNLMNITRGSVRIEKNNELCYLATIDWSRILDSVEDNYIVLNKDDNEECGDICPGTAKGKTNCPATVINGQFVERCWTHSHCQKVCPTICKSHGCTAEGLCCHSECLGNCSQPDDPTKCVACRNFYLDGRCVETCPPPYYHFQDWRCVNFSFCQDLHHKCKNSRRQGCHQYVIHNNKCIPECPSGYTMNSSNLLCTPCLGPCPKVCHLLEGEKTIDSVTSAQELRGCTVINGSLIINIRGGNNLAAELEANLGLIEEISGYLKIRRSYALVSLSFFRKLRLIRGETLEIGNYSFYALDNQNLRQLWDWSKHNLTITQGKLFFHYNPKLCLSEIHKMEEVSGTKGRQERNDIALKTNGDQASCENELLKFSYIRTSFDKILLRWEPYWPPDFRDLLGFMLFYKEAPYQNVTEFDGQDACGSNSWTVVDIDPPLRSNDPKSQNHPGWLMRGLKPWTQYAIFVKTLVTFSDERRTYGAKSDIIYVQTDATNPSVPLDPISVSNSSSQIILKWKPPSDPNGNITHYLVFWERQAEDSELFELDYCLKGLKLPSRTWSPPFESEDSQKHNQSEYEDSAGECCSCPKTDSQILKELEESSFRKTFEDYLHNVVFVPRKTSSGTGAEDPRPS
T3 sequence (P06213 763-1382 limits assumed): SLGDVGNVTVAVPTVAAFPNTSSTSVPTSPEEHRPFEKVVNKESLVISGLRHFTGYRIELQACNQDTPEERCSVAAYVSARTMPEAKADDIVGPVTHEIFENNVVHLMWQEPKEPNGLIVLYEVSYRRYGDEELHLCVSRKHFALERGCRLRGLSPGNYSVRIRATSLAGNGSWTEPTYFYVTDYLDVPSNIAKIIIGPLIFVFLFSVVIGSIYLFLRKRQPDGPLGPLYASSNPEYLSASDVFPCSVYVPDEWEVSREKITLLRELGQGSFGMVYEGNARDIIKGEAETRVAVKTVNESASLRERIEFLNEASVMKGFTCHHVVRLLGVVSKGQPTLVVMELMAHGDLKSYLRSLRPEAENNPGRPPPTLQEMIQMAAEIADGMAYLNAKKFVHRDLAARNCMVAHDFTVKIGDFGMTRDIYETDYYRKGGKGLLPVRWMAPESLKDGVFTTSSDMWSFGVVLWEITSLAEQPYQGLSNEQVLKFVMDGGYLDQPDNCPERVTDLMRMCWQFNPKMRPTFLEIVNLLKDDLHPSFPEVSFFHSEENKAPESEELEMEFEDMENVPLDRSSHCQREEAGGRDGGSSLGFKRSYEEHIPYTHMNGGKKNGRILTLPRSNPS
Kind of assay: Holoenzyme phosphorylation assay (IR autophosphorylation, Western blot). It counts as biochemical. The protocol: Alternatively, IR autophosphorylation was determined using a holoenzyme phosphorylation assay. […] The reaction was stopped by adding 50 µl of gel loading buffer containing β-mercaptoethanol (Bio-Rad Laboratories, Inc., Hercules, CA). The samples were run on 4-12% SDS-polyacrylamide gels. Western Blot analysis was performed by transferring the proteins onto nitrocellulose membrane. The membrane was blocked in PBS containing 3% milk overnight. The membrane was incubated with anti-phosphotyrosine 4G10 HRP labeled antibody (Upstate Biotechnology) for 2 h. Protein bands were visualized using SuperSignal West Dura Extended Duration Substrate Chemiluminescence Detection System (Pierce Chemical Co.).

The target in another assay is T4, IR (Homo sapiens, UniProt P06213).
T4 construct: composed of the extracellular domains of both the α and β chains of the natural receptor; made in house; background b13 names human embryonic kidney 293 cells for the Bass et al. construct
T4 sequence (P06213 28-758 limits assumed): as the sequence (P06213 28-758 limits assumed) above
T4 sequence (P06213 763-956 limits assumed): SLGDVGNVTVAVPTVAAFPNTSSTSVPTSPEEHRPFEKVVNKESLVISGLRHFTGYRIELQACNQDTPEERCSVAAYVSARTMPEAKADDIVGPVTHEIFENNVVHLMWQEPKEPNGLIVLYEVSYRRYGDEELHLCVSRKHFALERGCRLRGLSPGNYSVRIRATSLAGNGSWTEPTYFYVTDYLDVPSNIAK
Kind of assay: Phage ELISA, binding of phage-displayed peptides to IR. The protocol:
Amino acid sequences comprising the motif of Formulas 1 through 10. […] Fifty microliters of this solution was added to an appropriate number of wells in a 96-well microtiter plate (MaxiSorp plates, Nunc) and incubated overnight at 4°C. […] To isolate specific binders, each library was panned against a soluble form of the human IR. This IR is composed of the extracellular domains of both the α and β chains of the natural receptor, as well as the constant domain from immunoglobulin Fc, retaining the β-α-α-β structure described above. Because the IR is expressed in a eukaryotic system, disulfide bond formation and glycosylation patterns should mimic the wild-type receptor. The details of this recombinant protein construct are described in Bass et al. (1996). Phage ELISA. […] The wells were blocked with 200 µl of MPBS for 1.5 h at RT. […] Peptides were added as noted below and allowed to incubate at RT for 3 h. The plates were washed 3 times with PBST. A solution of 1:3000 diluted HRP:Anti-M13 conjugate at 100 µl per well of was added for 1 h. Following a repeat of the washing, 100 µl of ABTS was added for 15-30 min. […] Phage ELISA. […] Peptides were added as noted below and allowed to incubate at RT for 3 h. […] A solution of 1:3000 diluted HRP:Anti-M13 Conjugate at 100 µl per well of was added for 1 h. Following a repeat of the washing, 100 µl of ABTS was added for 15-30 min. The OD405 was measured using a SpectraMax 340 Microplate Spectrophotometer.
On the technique in general: An ELISA detects its analyte on a solid surface through an enzyme-linked reagent.

The test system of a further assay is adipocytes. Kind of assay: 3H-glucose uptake into adipocytes (fat cell assay, FFC). It counts as cell-based, Mouse. On the set-up: key to Resp.: -2 (antagonist); +2 (agonist). The following applies: for Resp.: Subjective ranking, basal and sub maximal insulin, includes series A.
For assay [4], the target named is human IGF-1 receptor (HIGF-1R) (Homo sapiens, UniProt P08069). Put plainly: 125I-IGF-1 competition binding assay on solubilised purified receptor. The following applies: Kd HIGF1R / Kd HIR.
human IGF-1 receptor (HIGF-1R), sequence (P08069 31-736 limits assumed): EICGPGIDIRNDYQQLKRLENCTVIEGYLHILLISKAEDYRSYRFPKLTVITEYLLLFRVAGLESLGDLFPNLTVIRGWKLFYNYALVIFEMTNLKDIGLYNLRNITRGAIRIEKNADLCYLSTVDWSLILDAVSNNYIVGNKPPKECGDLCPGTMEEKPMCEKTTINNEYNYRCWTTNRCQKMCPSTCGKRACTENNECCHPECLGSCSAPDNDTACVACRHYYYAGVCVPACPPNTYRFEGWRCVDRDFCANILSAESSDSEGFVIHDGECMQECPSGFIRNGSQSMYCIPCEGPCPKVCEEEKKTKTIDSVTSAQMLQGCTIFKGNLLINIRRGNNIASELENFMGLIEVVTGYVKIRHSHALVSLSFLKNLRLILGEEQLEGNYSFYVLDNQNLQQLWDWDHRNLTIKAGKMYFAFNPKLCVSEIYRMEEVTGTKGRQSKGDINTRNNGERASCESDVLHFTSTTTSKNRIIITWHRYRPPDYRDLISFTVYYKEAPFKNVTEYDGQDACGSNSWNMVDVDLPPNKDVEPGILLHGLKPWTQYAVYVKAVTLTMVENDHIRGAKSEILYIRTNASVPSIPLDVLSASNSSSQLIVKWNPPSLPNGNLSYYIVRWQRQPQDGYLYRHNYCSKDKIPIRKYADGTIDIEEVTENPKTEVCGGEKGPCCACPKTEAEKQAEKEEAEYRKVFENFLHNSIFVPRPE
human IGF-1 receptor (HIGF-1R), sequence (P08069 741-1367 limits assumed): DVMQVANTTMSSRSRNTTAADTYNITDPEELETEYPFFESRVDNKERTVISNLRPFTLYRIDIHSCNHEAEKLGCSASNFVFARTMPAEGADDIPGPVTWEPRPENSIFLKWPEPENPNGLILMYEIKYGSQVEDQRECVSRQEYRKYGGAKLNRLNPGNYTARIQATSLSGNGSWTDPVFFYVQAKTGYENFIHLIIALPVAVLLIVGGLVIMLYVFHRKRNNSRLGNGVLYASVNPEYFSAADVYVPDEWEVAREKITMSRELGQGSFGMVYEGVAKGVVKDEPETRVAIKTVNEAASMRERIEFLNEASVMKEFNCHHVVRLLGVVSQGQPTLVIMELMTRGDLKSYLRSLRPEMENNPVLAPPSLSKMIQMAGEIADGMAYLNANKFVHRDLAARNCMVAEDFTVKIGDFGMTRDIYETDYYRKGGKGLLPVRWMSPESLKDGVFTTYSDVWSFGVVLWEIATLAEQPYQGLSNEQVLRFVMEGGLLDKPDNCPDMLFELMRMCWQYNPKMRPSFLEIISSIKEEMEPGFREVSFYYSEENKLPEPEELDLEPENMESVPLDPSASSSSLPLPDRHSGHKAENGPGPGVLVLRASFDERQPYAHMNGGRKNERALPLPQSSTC
Assay [5] deals with FDCP2 cells (NIH) which express IGF-1R. Kind of assay: FDCP2 cell proliferation (WST-1), agonism. It counts as cell-based. As to conditions: not against IGF-1 R- cells. The protocol: Agonistic and antagonistic activities of the IGF-1-specific peptides were tested in FDCP2 cells (NIH) which express IGF-1R. […] Agonism activity assays were performed in a total volume of 100 µl in 96 well plates (flat bottom).
Proliferation assays were performed using WST-1 reagent. The WST-1 tetrazolium salt (slightly red) is cleaved to formazan (dark red) by the succinate-tetrazolium reductase system, which is active only in viable cells. An increase in the number of cells results in an increase in the overall activity of the dehydrogenase which results in a higher absorbance at 450 nm. […] Proliferation was measured by absorbance at 450 nm.
Background: Tetrazolium assays rely on reduction of a dye to a coloured formazan, in cell work by metabolically active cells.

The target in assay [6] is T2, Insulin receptor. Put plainly: Heterogeneous time-resolved fluorescence assay (TRFA) on insulin receptor. It counts as binding. How it is done:
In this assay, saEu forms a ternary complex with bP and IR (i.e., IR:bP:saEu complex). The TRFD assay format is well established, sensitive, and quantitative (Tompkins et al., 1993). The assay can use a single-chain antibody or a biotinylated peptide.
In these assays, soluble IR is coated on the surface of microtiter wells, blocked by a solution of 0.5% BSA and 2% non-fat milk in PBS, and then incubated with biotinylated peptide or rVab. Unbound bP is then washed away and saEu is added to complex with receptor-bound bP. Upon addition of the acidic enhancement solution, the bound europium is released as free Eu^3+ which rapidly forms a highly fluorescent and stable complex with components of the enhancement solution. The IR:bP bound saEu is then converted into its highly fluorescent state and detected by a detector such as Wallac Victor II (EG&G Wallac, Inc.)
• a. Heterogeneous Time-Resolved Fluorescence Assay. […] The plates were blocked with TBS containing 2% milk and 0.5% BSA for 1 h at RT followed by three TBS washes. […] After TBS wash, europium-labeled streptavidin at 1 µg/ml in assay buffer (100 mM Tris-HCl, pH 7.8; 150 mM NaCl; 0.5% BSA; 0.05% bovine Ig; 0.05% NaN3; 0.01% Tween-20) was added to the plates and incubated for 1 h. To test binding of rVab antibodies to IR, Eu-labeled rVab antibodies in assay buffer were added to the plates and incubated for 2 h to overnight. After incubation with Eu-labeled streptavidin (for peptide test) or europium-labeled rVabs, the plates were washed 5 times with Tris-buffered saline (pH 7.5) containing 0.1 % Tween-20 (TTBS) and tapped dry. Sixty microliters of EG&G Wallac enhancement solution (100 mM acetone-potassium hydrogen pthalate, pH 3.2; […] 2-naphtyltrifluoroacetate; […] tri(n-octyl)-phosphine oxide; 0.1 % Triton X-100) was added into each well, and the plates were placed onto a shaker for 20 min at RT. […] Homogeneous Time-Resolved Fluorescence Assay. […] For library screening, 20 µM of small organic molecules in 2 % DMSO are included in the mixture.

The target in assay [7] is T1, IGF-1R. Put plainly: Competitive phage ELISA with IGF-1 on IGF-1R. It counts as binding. How it is done:
For IC50 determinations in a competitive ELISA, microtiter plates were coated with IGF-1R and blocked as described. Phage were prepared as described. Prior to addition of phage to plates, the peptide or recombinant variable antibody or fragment ("rVab"), or an appropriate control, was diluted in PBS and added to duplicate wells (100 µl/well). After incubation for 1 h at RT, the prepared phage were added to each well (100 µl/well) without removing the peptide or rVab solution. After incubation for 1 h at RT, the wells were washed and the color developed as described above.
The clones were next analyzed for binding to the receptor's active site (Figures 20A and 20B).
For IC50 determinations, microtiter plates were coated with IGF-1R and blocked as described. Phage and soluble rVabs were prepared as described above. […] After incubation for 1 h at RT, the wells were washed and the color was developed as described above.

Positions of bridges follow the written chain, without caps; N, C: chain ends. Residues, ends and D or L forms follow the SMILES beside them. No end group written: not given here. *: point of attachment. Biotin = O=C1N[C@H]2[C@H](CS[C@H]2CCCCC(=O)*)N1

T1 sequence (P08069 31-736 limits assumed): as the sequence (P08069 31-736 limits assumed) above
T1 sequence (P08069 741-935 limits assumed): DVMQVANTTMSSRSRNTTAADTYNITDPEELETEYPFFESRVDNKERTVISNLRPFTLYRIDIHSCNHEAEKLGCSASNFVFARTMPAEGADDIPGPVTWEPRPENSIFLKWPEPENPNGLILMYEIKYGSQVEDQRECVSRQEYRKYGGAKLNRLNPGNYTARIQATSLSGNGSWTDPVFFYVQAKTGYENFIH
T2 sequence (P06213 28-758 limits assumed): as the sequence (P06213 28-758 limits assumed) above
T2 sequence (P06213 763-956 limits assumed): as the sequence (P06213 763-956 limits assumed) above

Turning to `CC[C@H](C)[C@H](NC(=O)[C@H](CCC(=O)O)NC(=O)[C@@H](N)CCCCN)C(=O)N[C@@H](CCC(=O)O)C(=O)N[C@@H](C)C(=O)N[C@@H](CCC(=O)O)C(=O)N[C@@H](Cc1c[nH]c2ccccc12)C(=O)NCC(=O)N[C@@H](CCCNC(=N)N)C(=O)N[C@H](C(=O)N[C@@H](CCCNC(=N)N)C(=O)N[C@H]1CSSC[C@@H](C(=O)N[C@H](C(=O)NCC(=O)NCC(=O)N[C@@H](CCCCN)C(=O)N[C@@H](CCCCNC(=O)CCCC[C@@H]2SC[C@@H]3NC(=O)N[C@@H]32)C(N)=O)C(C)C)NC(=O)[C@H](CCCNC(=N)N)NC(=O)CNC(=O)[C@H](Cc2ccc(O)cc2)NC(=O)[C@H](C(C)C)NC(=O)[C@H](CC(C)C)NC1=O)C(C)C` [Clone 20A4] (H-KEIEAEWGRVRCLVYGRCVGGKK(Biotin)-NH2; disulfide 12-18 (inferred); N-terminus assumed), on IGF-1R [1], the “Absorbance Values sIGF-1R” value is 0.21. Besides, the “Result (RUs)” value on Insulin receptor [2] turned out to be 41.8 RUs. For the same compound, in assay [3], the “Autophosph. Blot” value is 0. Moreover, the “Absorbance Values IR” value at IR (405 nm) was determined as 1.61. In addition, the Resp. with adipocytes is on record as -1.

Turning to `CC[C@H](C)[C@@H]1NC(=O)[C@H](CCCNC(=N)N)NC(=O)[C@H](C(C)C)NC(=O)CNC(=O)[C@H](Cc2c[nH]c3ccccc23)NC(=O)[C@H](CO)NC(=O)[C@H](CCC(N)=O)NC(=O)[C@@H](NC(=O)[C@H](CC(C)C)NC(=O)[C@H](CC(=O)O)NC(=O)[C@H](CCCCN)NC(=O)[C@H](Cc2ccc(O)cc2)NC(=O)[C@@H](N)CC(=O)O)CSSC[C@@H](C(=O)N2CCC[C@H]2C(=O)N[C@@H](CCCCN)C(=O)N[C@@H](CCCCNC(=O)CCCC[C@@H]2SC[C@@H]3NC(=O)N[C@@H]32)C(N)=O)NC(=O)[C@H](CC(C)C)NC(=O)CNC(=O)[C@H](C)NC(=O)[C@H](CC(C)C)NC(=O)[C@H](Cc2c[nH]c3ccccc23)NC(=O)CNC1=O` [JBA5] (H-DYKDLCQSWGVRIGWLAGLCPKK(Biotin)-NH2; disulfide 6-20 (inferred); N-terminus assumed), the “Autophosph. Blot” value in [3] is reported as 0. In addition, the Ratio in assay [4] was found to be 1.8. At IR, the “binding to IR when expressed as phage” value is on record as “do not have detectable binding”. Besides, in the assay on adipocytes, the “Comments (dose response, effect at basal insulin)” value is given as “Slight effect at basal insulin” and the Resp. entry was “+2”. Besides, the ED50 with adipocytes (Estimated, not calculated values) is more than 20 µM.

Regarding LCQRLGVGWPGWLSGWCA [Clone H5], the “activity toward IGF-1 R+ cells in cell culture” value in assay [5] is on record as “agonistic activity”.

As to WNTVDPFYHKLSELLREKK [Clone B6], the “competition with binding of 12H10 to IR” value at Insulin receptor [6] is “do not compete”. In addition, the “inhibition of phage binding to immobilized IGF-1R by IGF-1” value on IGF-1R [7] is “could be inhibited with IGF-1”. Further, the “binding to IR when expressed as phage” value on IR is listed as “do not have detectable binding”.
